assay: Drug absorption in human assessed as human intestinal absorption rate; format: ADME, tissue-based, Intestine

Going from `O=C(O)CCC(=O)Nc1ccc(S(=O)(=O)Nc2nccs2)cc1` [SUCCINYLSULFATHIAZOLE] to `CCCC(=O)Nc1ccc(OCC(O)CNC(C)C)c(C(C)=O)c1` (configuration not stated) [ACEBUTOLOL], the “log10(%HIA +10)” value rises from 1.176 to 1.999.

`CN1C[C@H](C(=O)N[C@]2(C)O[C@@]3(O)[C@@H]4CCCN4C(=O)[C@H](Cc4ccccc4)N3C2=O)C[C@@H]2c3cccc4[nH]cc(c34)C[C@H]21` [DIHYDROERGOTAMINE] and `CCOC(=O)[C@H](CCc1ccccc1)N[C@@H](C)C(=O)N1[C@H](C(=O)O)C[C@H]2CCCC[C@@H]21` [TRANDOLAPRIL] are within 0.2 log units of each other in “log10(%HIA +10)” value: 1.653 for the first, 1.778 for the second.

Compared with `CCOC(=O)C1=C(C)NC(C)=C(C(=O)OC)C1c1cccc([N+](=O)[O-])c1` (configuration not stated) [NITRENDIPINE], `CO/N=C(\C(=O)N[C@@H]1C(=O)N2C(C(=O)O)=C(COC(N)=O)CS[C@H]12)c1ccco1` [CEFUROXIME] is lower in “log10(%HIA +10)” value: 1.991 for the first, 1.176 for the second.

Going from `N=C(N)NCC1COc2ccccc2O1` (configuration not stated) [GUANOXAN] to `O=C1NS(=O)(=O)c2ccccc21` [SACCHARIN], the “log10(%HIA +10)” value rises from 1.778 to 1.991.

`CN(C)CCc1c[nH]c2ccc(CS(=O)(=O)N3CCCC3)cc12` [ALMOTRIPTAN] and `Oc1ccc(C(O)C2CCCCN2)cc1O` (configuration not stated) [RIMITEROL] are within 0.2 log units of each other in “log10(%HIA +10)” value: 1.929 for the first, 1.763 for the second.

Going from `Nc1ccn(C[C@@H](CO)OCP(=O)(O)O)c(=O)n1.O.O` [CIDOFOVIR] to `Nc1ncnc2c1ncn2CCOCP(=O)(O)O` [ADEFOVIR], the “log10(%HIA +10)” value rises from 1.114 to 1.342.

First: C[C@](N)(Cc1ccc(O)c(O)c1)C(=O)O [METHYLDOPA]
Second: CC(C)Cc1ccc(C(C)C(=O)O)cc1 (configuration not stated) [IBUPROFEN]
The “log10(%HIA +10)” value of the first is lower: 1.708 for the first, 2.041 for the second.

First: CC1(C)S[C@@H]2[C@H](NC(=O)[C@H](C(=O)O)c3ccsc3)C(=O)N2[C@H]1C(=O)O [TICARCILLIN]
Second: COCC1=C(C(=O)OC(C)OC(=O)OC(C)C)N2C(=O)[C@@H](NC(=O)/C(=N\OC)c3csc(N)n3)[C@H]2SC1 (some centres not stated) [CEFPODOXIME PROXETIL]
The “log10(%HIA +10)” value of the first is lower: 1.176 for the first, 1.778 for the second.

First: C[C@@H]1O[C@@H]1P(=O)(O)O [FOSFOMYCIN]
Second: COc1ccc2c3c1O[C@H]1C(=O)CC[C@@]4(O)[C@@H](C2)N(C)CC[C@]314 [OXYCODONE]
The “log10(%HIA +10)” value of the first is lower: 1.613 for the first, 1.845 for the second.

Going from `CNC(=O)c1c(I)c(NC(C)=O)c(I)c(C(=O)O)c1I` [IOTHALAMIC ACID] to `CC(=O)NCCCS(=O)(=O)O` [ACAMPROSATE], the “log10(%HIA +10)” value rises from 1.076 to 1.322.

`COCC(=O)O[C@]1(CCN(C)CCCc2nc3ccccc3[nH]2)CCc2cc(F)ccc2[C@@H]1C(C)C` [MIBEFRADIL] and `O=c1[nH]c2ccccc2n1C1CCN(CCCC(c2ccc(F)cc2)c2ccc(F)cc2)CC1` [PIMOZIDE] are within 0.2 log units of each other in “log10(%HIA +10)” value: 1.898 for the first, 1.903 for the second.

`CN1CCN2c3ccccc3Cc3ccccc3C2C1` (configuration not stated) [MIANSERIN] and `O=C(c1ccccc1)c1ccc2n1CCC2C(=O)O` (configuration not stated) [KETOROLAC] are within 0.2 log units of each other in “log10(%HIA +10)” value: 1.903 for the first, 2 for the second.

`Nc1cc(N2CCCCC2)nc(N)[n+]1[O-]` [MINOXIDIL] and `COc1cc(Cc2cnc(N)nc2N)cc(OC)c1OC` [TRIMETHOPRIM] are within 0.2 log units of each other in “log10(%HIA +10)” value: 2.033 for the first, 2.029 for the second.

Going from `O=C(O)c1cc(=O)c2c(OCC(O)COc3cccc4oc(C(=O)O)cc(=O)c34)cccc2o1` [CROMOLYN] to `CCc1cccc2c3c([nH]c12)C(CC)(CC(=O)O)OCC3` (configuration not stated) [ETODOLAC], the “log10(%HIA +10)” value rises from 1.021 to 1.903.

`Cn1c(=O)c2c(ncn2C)n(C)c1=O` [CAFFEINE] and `C[C@]12CCC(=O)C=C1CC[C@@H]1[C@@H]2[C@@H](O)C[C@@]2(C)[C@H]1CC[C@]2(O)C(=O)CO` [HYDROCORTISONE] are within 0.2 log units of each other in “log10(%HIA +10)” value: 2.041 for the first, 2.004 for the second.

First: OC[C@H]1O[C@H](OC[C@H]2O[C@H](O[C@]3(CO)O[C@H](CO)[C@@H](O)[C@@H]3O)[C@H](O)[C@@H](O)[C@@H]2O)[C@H](O)[C@@H](O)[C@H]1O [RAFFINOSE]
Second: NC(N)=Nc1nc(CSCCC(N)=NS(N)(=O)=O)cs1 [FAMOTIDINE]
The “log10(%HIA +10)” value of the first is lower: 1.013 for the first, 1.681 for the second.

— ChEMBL document CHEMBL1649380, “Prediction of drug intestinal absorption by new linear and non-linear QSPR” (Eur J Med Chem, 2011)
